The text below walks through data of US20080167268A1, “Particulate beta-glucan compositions for regulating dendritic cells” (priority 2006, published 2008).

This assay concerns Lewis Lung Carcinoma cells (LLC) transfected with OVA and MUC1. Kind of assay: Staurosporine-induced apoptosis of transfected LLCs (PI / annexin V-FITC flow cytometry). The format is cell-based. The following applies: transfected LLCs treated with Staurosporine vs untreated; FIG. 2. The text has this: Transfected LLCs were either left untreated (plot 22) or treated (plot 24) with Staurosporine, which induces apoptosis. Cells from both groups were stained with propidium iodide (PI) and annexin V-FITC and analyzed by flow cytometry.
A general note: A flow cytometer gives signals particle by particle.

As to `CN[C@@H]1C[C@H]2O[C@@](C)([C@@H]1OC)n1c3ccccc3c3c4c(c5c6ccccc6n2c5c31)C(=O)NC4` [Staurosporine], the “induction of apoptosis (annexin V-FITC positive cells)” value was “able to induce apoptosis”.
